What was measured:
[1] = biological target: T1, VIP1 (h) (VPAC1) (Homo sapiens, UniProt P32241); test: Receptor binding screen, [^125I]VIP; settings: 10 uM Concentration of Compound I-1-Z; read-out: Mean Value, percent inhibition of control specific binding: VIP1 (h) (VPAC1)
T1 construct: expressed in transfected cells; host or cells: CHO cells

[2] = biological target: T2, CCKB (h) (CCK2) (Homo sapiens, UniProt P32239); test: Receptor binding screen, [^125I]CCK-8; settings: 10 uM Concentration of Compound I-1-Z; read-out: Mean Value, percent inhibition of control specific binding: CCKB (h) (CCK2)
T2 construct: expressed in transfected cells; host or cells: CHO cells

[3] = biological target: T3, H2 (h) (Homo sapiens, UniProt P25021); test: Receptor binding screen, [^125I]APT; settings: 10 uM Concentration of Compound I-1-Z; read-out: Mean Value, percent inhibition of control specific binding: H2 (h)
T3 construct: expressed in transfected cells; host or cells: CHO cells

[4] = biological target: T4, 5-HT1B (Rattus norvegicus, UniProt P28564); test: Receptor binding screen, [^125I]CYP; settings: probe [125I]CYP (radioligand), 10 uM Concentration of Compound I-1-Z, read-out: Mean Value, percent inhibition of control specific binding: 5-HT1B
T4 construct: rat cerebral cortex; from tissue; host or cells: rat cerebral cortex

[5] = tested on: sst (non-selective); test: Receptor binding screen, [^125I]Tyr^11-somatostatin, AtT-20 cells; settings: 10 uM Concentration of Compound I-1-Z
Procedure: (§1) For Table 4 below, the specific ligand binding to the receptors is defined as the difference between the total binding and the nonspecific binding determined in the presence of an excess of unlabelled ligand. The results are expressed as a percent inhibition of control specific binding obtained in the presence of Compound I-1-Z. The IC50 values (concentration causing a half-maximal inhibition of control specific binding) and Hill coefficients (nH) were determined by non-linear regression analysis of the competition curves using Hill equation curve fitting. The inhibition constants (Ki) were calculated from the Cheng Prusoff equation (Ki=IC50/(1+(L/KD)), where L=concentration of radioligand in the assay, and KD=affinity of the radioligand for the receptor). In each experiment, the respective reference compound was tested concurrently with Compound I-1-Z in order to assess the assay suitability.

[6] = tested on: collagen-induced arthritis; test: Collagen-induced arthritis by direct injection of Type II collagen; assay type: in vivo, B10RIII mice; settings: FIG. 15
Procedure: Collagen-induced arthritis can also be induced by direct injection of collagen. Groups of 15 male B10RIII mice were injected intradermally with Type II collagen in Complete Freund Adjuvant (CFA) on days 0 and 15. Mice were dosed p.o. starting from day 0 to day 28 with phosphate buffered saline (PBS), 5 mg/kg compound I-1-Z, 30 mg/kg compound I-1-Z or 0.2 mg/kg dexamethasone. […] Clinical scores were determined daily for each paw based on a scale between 0-5 based on joint erythema and swelling. Statistical analysis was by Student's t-test versus the PBS-treated disease control group.

[7] = tested on: antibody-mediated collagen-induced arthritis; test: Anti-collagen antibody-induced arthritis in mice; assay type: in vivo; settings: 30 mg/kg, i.p., once daily, days 1-10; FIG. 4
Excerpt: Collagen-induced arthritis (CIA) in mice is widely used as an experimental model for rheumatoid arthritis (RA) in humans. CIA is mediated by autoantibodies to a particular region of type II collagen and complement. The murine CIA model used in this study is called antibody-mediated CIA, and can be induced by i.v. injection of a combination of different anti-type II collagen monoclonal antibodies (Terato K., et al. (1995). Autoimmunity. 22:137). Several compounds have been used to successfully block inflammation in this model, including anti-α1β1 and […] integrins monoclonal antibodies (de Fougerolles A. R. (2000) J. Clin. Invest. 105: 721).
In this example, arthrogen-collagen-induced arthritis antibody kits were purchased from Chemicon International (Temecula, Calif.) and arthritis was induced using the manufacturer's protocol. Mice were injected i.v. with a cocktail of 4 anti-collagen Type II monoclonal antibodies (1.5 mg each) on day 0, followed by i.p. injection of 25 μg lipopolysaccharide (LPS) on day 2. […] Severity of arthritis in each limb was scored for 3-4 weeks as follows: 0=normal; 1=mild redness, slight swelling of ankle or wrist; 2=moderate redness and swelling of ankle or wrist; 3=severe redness and swelling of some digits, ankle and paw; 4=maximally inflamed limb, with a maximum score of 16 per animal. […]

[8] = tested on: Cl^− channel; test: Receptor binding screen, [^35S]TBPS; design: species or system rat; settings: 10 uM Concentration of Compound I-1-Z
[9] = tested on: BB (non-selective); test: Receptor binding screen, [^125I][Tyr^4]bombesin; design: species or system rat; settings: 10 uM Concentration of Compound I-1-Z
Procedure: as §1

[10] = biological target: T5, ETB (h) (Homo sapiens, UniProt P24530); test: Receptor binding screen, [^125I]endothelin-1; settings: 10 uM Concentration of Compound I-1-Z; read-out: Mean Value, percent inhibition of control specific binding: ETB (h)
T5 construct: expressed in transfected cells; host or cells: CHO cells

[11] = tested on: σ (non-selective); test: Receptor binding screen, [^3H]DTG; design: species or system rat; settings: 10 uM Concentration of Compound I-1-Z
Procedure: as §1

[12] = biological target: T6, NK3 (h) (Homo sapiens, UniProt P29371); test: Receptor binding screen, [^3H]SR 142801; settings: 10 uM Concentration of Compound I-1-Z; read-out: Mean Value, percent inhibition of control specific binding: NK3 (h)
T6 construct: expressed in transfected cells; host or cells: CHO cells

[13] = biological target: T7, 5-HT3 (h) (Homo sapiens, UniProt P46098); test: Receptor binding screen, [^3H]BRL 43694; settings: 10 uM Concentration of Compound I-1-Z; read-out: Mean Value, percent inhibition of control specific binding: 5-HT3 (h)
T7 construct: expressed in transfected cells; host or cells: CHO cells

[14] = biological target: T8, BZD (peripheral) (Rattus norvegicus, UniProt P16257); test: Receptor binding screen, [^3H]PK 11195; settings: 10 uM Concentration of Compound I-1-Z; read-out: Mean Value, percent inhibition of control specific binding: BZD (peripheral)
T8 construct: rat heart; from tissue; host or cells: rat heart

[15] = tested on: K^+V channel; test: Receptor binding screen, [^125I]α-dendrotoxin; design: species or system rat; settings: 10 uM Concentration of Compound I-1-Z

T6 sequence (P29371 whole entry): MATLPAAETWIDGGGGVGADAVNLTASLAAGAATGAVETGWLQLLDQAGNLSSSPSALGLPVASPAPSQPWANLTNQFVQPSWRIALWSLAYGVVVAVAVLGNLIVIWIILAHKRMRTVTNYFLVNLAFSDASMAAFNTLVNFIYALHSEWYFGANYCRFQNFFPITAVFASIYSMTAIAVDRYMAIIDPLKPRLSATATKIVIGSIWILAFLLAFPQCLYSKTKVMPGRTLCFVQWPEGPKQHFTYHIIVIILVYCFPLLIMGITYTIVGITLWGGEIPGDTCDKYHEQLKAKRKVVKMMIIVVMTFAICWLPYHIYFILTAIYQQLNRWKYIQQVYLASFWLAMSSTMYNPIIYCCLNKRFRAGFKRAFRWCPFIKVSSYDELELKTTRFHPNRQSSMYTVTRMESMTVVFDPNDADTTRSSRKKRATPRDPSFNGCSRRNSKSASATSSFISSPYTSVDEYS
T2 sequence (P32239 whole entry): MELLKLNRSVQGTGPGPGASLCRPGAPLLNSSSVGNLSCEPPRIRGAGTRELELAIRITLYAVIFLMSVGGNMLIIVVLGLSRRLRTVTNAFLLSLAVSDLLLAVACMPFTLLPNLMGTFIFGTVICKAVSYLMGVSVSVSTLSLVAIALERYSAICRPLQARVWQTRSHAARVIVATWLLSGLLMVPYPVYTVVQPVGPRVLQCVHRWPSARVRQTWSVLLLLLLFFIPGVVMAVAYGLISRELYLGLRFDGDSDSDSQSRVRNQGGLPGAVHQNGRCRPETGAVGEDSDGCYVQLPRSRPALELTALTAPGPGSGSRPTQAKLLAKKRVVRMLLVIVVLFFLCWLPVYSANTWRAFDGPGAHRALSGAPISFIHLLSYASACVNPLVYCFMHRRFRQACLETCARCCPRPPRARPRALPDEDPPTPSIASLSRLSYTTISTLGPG
T1 sequence (P32241 31-457): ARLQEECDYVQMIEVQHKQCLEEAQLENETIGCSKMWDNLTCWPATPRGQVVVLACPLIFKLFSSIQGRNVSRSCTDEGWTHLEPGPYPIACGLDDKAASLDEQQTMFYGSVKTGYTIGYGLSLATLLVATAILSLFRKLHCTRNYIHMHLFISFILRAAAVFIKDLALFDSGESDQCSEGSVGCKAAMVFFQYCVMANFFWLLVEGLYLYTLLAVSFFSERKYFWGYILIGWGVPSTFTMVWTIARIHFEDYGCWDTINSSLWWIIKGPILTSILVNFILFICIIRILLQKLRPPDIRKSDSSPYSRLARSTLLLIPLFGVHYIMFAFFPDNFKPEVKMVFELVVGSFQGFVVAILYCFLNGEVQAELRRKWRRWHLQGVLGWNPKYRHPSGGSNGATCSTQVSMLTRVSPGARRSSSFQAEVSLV
T7 sequence (P46098 24-478): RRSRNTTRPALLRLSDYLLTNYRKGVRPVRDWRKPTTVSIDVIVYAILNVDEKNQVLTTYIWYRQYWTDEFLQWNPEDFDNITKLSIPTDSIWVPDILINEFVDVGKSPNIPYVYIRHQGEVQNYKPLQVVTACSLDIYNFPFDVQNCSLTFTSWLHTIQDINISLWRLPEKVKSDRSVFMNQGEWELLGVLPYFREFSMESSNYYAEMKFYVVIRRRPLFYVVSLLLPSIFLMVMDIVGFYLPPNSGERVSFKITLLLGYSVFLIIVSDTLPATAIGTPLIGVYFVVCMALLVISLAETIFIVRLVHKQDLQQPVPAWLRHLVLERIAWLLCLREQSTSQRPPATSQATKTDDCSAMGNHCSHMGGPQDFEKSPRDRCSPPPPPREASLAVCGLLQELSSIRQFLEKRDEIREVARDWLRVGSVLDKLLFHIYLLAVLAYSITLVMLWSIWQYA
T3 sequence (P25021 whole entry): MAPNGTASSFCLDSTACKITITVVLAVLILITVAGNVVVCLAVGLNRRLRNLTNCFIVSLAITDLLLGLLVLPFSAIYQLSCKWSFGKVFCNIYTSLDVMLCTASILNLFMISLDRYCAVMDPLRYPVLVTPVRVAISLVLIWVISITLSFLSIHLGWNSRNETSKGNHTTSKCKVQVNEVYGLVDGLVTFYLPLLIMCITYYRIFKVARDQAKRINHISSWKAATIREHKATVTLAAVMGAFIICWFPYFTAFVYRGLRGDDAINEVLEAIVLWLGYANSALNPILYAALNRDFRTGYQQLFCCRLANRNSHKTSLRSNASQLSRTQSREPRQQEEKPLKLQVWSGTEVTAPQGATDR
T5 sequence (P24530 27-442): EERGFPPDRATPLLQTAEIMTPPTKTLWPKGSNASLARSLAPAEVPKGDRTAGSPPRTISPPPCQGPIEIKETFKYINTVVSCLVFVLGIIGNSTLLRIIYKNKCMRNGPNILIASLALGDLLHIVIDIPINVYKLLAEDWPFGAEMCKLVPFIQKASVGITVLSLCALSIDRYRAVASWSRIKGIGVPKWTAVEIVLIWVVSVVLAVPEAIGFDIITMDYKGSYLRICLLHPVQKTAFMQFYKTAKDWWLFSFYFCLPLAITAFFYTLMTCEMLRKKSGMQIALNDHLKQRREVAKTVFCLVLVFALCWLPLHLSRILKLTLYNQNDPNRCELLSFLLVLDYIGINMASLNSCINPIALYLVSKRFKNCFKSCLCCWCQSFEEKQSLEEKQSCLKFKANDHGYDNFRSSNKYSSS
T4 sequence (P28564 whole entry): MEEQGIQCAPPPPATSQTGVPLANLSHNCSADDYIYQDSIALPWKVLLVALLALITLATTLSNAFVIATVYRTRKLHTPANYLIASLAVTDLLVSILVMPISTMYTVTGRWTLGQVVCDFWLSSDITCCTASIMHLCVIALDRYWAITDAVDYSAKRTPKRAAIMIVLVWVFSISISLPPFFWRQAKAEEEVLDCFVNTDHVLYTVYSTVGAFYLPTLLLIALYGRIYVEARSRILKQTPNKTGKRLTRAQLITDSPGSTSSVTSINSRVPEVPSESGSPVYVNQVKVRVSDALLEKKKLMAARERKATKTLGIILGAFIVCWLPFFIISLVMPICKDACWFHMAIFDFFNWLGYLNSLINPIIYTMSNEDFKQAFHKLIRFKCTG

Question: What does the source list for `COc1ccc(C/C(=C/F)CN)cc1.Cl` [Compound I-1-Z, (Z)-3-Fluoro-2-(4-methoxybenzyl)-allylamine hydrochloride]?
Answer: inhibition at 10 µM [1]: -13%; inhibition at 10 µM [2]: -5%; inhibition at 10 µM [3]: 16%; inhibition at 10 µM [4]: 16%; Mean Value, percent inhibition of control specific binding: sst (non-selective) [5]: −4%; incidence of arthritis and clinical scores as compared to PBS ([6]; 5 mg/kg p.o. day 0 to day 28): reduced both the incidence of arthritis and the clinical scores; clinical efficacy ([6]; 30 mg/kg p.o. day 0 to day 28): no clinical efficacy was observed; final arthritis score and paw swelling [7]: clearly reduced; Mean Value, percent inhibition of control specific binding: Cl^− channel [8]: −6%; Mean Value, percent inhibition of control specific binding: BB (non-selective) [9]: 21%; inhibition at 10 µM [10]: -5%; Mean Value, percent inhibition of control specific binding: σ (non-selective) [11]: 24%; inhibition at 10 µM [12]: 1%; inhibition at 10 µM [13]: 4%; inhibition at 10 µM [14]: -6%; Mean Value, percent inhibition of control specific binding: K^+V channel [15]: −5%
